According to patent US12686673B2 (Blueprint Medicines Corporation, priority 2020, dated 2026):
Counter-ions that a name gives are not always drawn.

Legend:
Assay type in all cases: cell-based
[1] = biological target: EGFR (A767_dupASV) expressing Ba/F3 stable cell line (Homo sapiens, UniProt P00533, DUP767-769, cells depend on it); assay: Cellular proliferation (Alamar Blue) assay, EGFR A767_dupASV Ba/F3; conditions: 72 hr, read-out: A767 IC50
Summary of the method: (§1)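 Ba/F3 stable lines (15,000 cells/well, RPMI + 10% FBS) seeded 16–18 h, then treated 72 h at 37 °C with compound, final 10–0.0005 μM in 3-fold dilutions. Viability read by Alamar Blue after 3 h incubation.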

A431 cells = assay: Cellular proliferation (Alamar Blue) assay, A431; conditions: Homo sapiens, A-431; A431 cells, Alamar Blue, 72 hr; read-out: A431 IC50
[2] = biological target: EGFR (H773insNPH) expressing Ba/F3 stable cell line (Homo sapiens, UniProt P00533, DUP771-773, cells depend on it); assay: Cellular proliferation (Alamar Blue) assay, EGFR H773insNPH Ba/F3; conditions: 72 hr, read-out: NPH IC50
Chain of EGFR (H773insNPH) expressing Ba/F3 stable cell line (P00533 with tags, fused parts or gaps DUP771-773): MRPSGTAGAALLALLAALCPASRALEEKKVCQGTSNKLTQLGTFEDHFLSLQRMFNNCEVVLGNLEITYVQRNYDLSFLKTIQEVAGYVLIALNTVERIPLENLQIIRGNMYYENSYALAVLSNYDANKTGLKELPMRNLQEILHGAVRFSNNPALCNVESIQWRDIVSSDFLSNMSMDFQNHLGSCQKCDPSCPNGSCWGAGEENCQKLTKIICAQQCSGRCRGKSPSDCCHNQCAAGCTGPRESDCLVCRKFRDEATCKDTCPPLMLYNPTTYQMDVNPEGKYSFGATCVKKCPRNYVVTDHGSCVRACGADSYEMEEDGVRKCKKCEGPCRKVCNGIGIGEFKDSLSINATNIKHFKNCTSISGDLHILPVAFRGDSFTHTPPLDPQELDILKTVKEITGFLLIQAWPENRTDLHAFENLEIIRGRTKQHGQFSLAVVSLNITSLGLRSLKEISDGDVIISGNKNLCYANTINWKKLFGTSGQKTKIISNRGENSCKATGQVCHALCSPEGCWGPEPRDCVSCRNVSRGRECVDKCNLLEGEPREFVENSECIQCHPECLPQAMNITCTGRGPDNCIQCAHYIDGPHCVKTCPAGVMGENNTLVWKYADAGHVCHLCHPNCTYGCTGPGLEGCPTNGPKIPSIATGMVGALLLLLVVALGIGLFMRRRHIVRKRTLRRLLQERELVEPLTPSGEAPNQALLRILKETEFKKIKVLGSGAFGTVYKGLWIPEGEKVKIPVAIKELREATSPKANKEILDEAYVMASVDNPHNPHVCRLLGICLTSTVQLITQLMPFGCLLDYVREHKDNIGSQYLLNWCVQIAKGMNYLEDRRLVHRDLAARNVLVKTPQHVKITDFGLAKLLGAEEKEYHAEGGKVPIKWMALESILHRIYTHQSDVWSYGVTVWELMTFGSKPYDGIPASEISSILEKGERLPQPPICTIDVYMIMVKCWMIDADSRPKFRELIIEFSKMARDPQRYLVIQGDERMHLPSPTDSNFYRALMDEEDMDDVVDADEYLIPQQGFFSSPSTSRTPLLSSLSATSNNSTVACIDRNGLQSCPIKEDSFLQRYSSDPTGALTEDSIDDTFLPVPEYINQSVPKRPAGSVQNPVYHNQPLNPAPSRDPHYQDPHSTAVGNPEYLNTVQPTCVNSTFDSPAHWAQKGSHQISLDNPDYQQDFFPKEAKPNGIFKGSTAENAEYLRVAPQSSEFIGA
Summary of the method: as §1

[3] = biological target: EGFR(D770_N771insSVD) expressing Ba/F3 stable cell line (Homo sapiens, UniProt P00533, DUP768-770, cells depend on it); assay: Cellular proliferation (Alamar Blue) assay, EGFR D770_N771insSVD Ba/F3; conditions: 72 hr, read-out: D770 IC50
Chain of EGFR(D770_N771insSVD) expressing Ba/F3 stable cell line (P00533 with tags, fused parts or gaps DUP768-770): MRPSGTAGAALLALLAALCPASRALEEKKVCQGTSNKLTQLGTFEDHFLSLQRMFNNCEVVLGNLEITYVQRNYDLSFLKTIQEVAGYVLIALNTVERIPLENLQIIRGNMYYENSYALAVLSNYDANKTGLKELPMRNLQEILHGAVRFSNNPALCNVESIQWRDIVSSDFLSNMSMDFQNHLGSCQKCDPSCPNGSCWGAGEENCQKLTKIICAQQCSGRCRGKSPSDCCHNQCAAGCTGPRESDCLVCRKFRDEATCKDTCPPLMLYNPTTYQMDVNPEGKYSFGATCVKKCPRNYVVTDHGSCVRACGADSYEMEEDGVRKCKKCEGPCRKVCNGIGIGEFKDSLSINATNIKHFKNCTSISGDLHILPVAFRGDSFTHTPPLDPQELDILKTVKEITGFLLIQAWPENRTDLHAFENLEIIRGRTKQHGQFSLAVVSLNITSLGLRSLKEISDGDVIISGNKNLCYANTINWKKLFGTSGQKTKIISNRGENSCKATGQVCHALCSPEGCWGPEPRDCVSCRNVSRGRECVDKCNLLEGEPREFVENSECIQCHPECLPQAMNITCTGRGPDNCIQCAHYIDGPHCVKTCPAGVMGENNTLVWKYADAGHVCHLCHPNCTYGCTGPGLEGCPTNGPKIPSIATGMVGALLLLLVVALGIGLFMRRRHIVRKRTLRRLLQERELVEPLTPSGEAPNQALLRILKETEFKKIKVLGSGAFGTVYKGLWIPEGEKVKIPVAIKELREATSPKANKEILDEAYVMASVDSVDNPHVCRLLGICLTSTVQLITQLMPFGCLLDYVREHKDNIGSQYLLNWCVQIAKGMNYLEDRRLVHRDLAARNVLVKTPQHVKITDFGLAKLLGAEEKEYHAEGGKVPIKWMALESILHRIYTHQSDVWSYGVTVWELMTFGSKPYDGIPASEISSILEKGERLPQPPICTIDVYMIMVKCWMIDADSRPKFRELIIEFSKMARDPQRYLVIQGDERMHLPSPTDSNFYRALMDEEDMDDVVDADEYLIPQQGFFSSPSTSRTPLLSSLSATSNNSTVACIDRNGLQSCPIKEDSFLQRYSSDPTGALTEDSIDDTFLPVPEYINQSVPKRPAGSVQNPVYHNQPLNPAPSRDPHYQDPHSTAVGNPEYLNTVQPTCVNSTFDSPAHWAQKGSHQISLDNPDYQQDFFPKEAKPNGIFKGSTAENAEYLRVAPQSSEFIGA
Summary of the method: as §1

[4] = biological target: HER2 (A775_G776insYVMA) expressing Ba/F3 stable cell line (Homo sapiens, UniProt P04626, DUP772-775, cells depend on it); assay: Cellular proliferation (Alamar Blue) assay, HER2 A775_G776insYVMA Ba/F3; conditions: 72 hr, read-out: YVMA IC50
Chain of HER2 (A775_G776insYVMA) expressing Ba/F3 stable cell line (P04626 with tags, fused parts or gaps DUP772-775): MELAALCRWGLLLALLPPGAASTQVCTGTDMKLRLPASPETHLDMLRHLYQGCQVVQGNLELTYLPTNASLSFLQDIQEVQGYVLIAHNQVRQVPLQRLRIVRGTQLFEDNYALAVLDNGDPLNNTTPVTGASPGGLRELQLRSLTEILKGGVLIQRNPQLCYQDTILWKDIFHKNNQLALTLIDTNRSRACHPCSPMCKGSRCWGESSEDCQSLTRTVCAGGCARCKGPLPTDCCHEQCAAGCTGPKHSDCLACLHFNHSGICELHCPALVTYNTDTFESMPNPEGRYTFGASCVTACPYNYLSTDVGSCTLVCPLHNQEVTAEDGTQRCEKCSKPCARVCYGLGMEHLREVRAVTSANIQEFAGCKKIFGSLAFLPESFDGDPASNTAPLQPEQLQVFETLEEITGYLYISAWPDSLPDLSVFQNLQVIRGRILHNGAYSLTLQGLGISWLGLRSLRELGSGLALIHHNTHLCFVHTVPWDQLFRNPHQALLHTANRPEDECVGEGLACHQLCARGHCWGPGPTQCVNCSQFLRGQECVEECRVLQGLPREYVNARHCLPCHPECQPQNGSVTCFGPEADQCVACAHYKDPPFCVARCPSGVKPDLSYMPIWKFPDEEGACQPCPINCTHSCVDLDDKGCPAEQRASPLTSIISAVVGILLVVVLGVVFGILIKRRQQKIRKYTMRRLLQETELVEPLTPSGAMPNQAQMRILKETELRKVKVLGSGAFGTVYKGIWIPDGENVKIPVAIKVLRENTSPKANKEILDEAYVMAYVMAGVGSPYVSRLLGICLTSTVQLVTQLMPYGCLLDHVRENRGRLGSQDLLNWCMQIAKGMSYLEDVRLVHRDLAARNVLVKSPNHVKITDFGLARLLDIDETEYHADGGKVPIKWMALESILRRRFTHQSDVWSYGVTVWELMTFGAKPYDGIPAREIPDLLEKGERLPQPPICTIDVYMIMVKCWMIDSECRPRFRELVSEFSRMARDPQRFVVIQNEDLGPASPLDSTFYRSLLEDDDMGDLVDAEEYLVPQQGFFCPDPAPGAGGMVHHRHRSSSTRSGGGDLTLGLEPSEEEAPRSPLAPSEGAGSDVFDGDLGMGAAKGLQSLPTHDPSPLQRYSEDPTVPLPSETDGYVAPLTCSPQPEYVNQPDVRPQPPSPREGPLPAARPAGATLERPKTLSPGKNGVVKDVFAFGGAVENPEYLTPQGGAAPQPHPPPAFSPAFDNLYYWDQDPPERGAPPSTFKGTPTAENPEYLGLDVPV
Summary of the method: as §1

Chain of EGFR (A767_dupASV) expressing Ba/F3 stable cell line (P00533 with tags, fused parts or gaps DUP767-769): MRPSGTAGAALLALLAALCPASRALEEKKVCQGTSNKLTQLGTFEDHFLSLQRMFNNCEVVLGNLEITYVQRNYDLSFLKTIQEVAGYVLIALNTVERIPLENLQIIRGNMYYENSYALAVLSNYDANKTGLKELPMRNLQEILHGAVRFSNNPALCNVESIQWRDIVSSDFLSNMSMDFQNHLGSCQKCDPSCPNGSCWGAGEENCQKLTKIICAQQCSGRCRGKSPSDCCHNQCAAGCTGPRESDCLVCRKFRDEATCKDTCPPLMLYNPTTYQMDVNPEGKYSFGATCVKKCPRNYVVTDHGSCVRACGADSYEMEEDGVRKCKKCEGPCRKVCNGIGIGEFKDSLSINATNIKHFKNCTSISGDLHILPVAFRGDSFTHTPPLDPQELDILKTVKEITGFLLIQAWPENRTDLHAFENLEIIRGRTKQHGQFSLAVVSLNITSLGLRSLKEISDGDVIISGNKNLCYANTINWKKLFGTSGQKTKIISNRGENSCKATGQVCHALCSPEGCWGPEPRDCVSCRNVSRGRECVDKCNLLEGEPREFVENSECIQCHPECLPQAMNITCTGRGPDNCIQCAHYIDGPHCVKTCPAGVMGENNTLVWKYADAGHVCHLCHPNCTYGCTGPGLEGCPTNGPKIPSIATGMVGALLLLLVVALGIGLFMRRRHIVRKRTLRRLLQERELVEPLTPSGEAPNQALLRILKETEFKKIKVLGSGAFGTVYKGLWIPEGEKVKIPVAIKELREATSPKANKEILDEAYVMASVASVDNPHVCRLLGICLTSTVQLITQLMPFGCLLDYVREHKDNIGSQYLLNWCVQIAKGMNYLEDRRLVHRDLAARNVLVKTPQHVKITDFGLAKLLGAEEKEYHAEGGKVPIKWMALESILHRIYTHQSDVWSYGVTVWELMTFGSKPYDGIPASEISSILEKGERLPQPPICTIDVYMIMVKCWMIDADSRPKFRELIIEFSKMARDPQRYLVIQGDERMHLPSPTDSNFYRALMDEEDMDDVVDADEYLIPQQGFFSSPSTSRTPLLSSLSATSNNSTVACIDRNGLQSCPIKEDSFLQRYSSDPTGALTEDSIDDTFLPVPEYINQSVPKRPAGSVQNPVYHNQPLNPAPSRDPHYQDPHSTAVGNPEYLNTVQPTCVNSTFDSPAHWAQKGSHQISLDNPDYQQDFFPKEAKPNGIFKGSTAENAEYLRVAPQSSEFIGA

Compound | GI50 [1] [nM] | IC50 (A431 cells) [nM] | GI50 [2] [nM] | GI50 [3] [nM] | GI50 [4] [nM]
C=CC(=O)Nc1cccc(Nc2nc(Nc3cnn(C)c3)ncc2-c2cccc(F)c2)c1 [Compound 115, N-(3-((5-(3-fluorophenyl)-2-((1-methyl-1H-pyrazol-4-yl)amino)pyrimidin-4-yl)amino)phenyl)acrylamide trifluoroacetate] | 39 | 100 | 30 | 16 | 25
C=CC(=O)Nc1ccc(F)c(Nc2nc(Nc3cnn(C)c3)ncc2-c2cncc(N(C)C)c2)c1 [Compound 116, N-(3-((5-(5-(dimethylamino)pyridin-3-yl)-2-((1-methyl-1H-pyrazol-4-yl)amino)pyrimidin-4-yl)amino)-4-fluorophenyl)acrylamide trifluoroacetate] | 94 | 108 | 136 | 108 | 251
C=CC(=O)Nc1ccc(F)c(Nc2nc(Nc3cnn(C)c3)ncc2-c2ccnc(Cl)c2)c1 [Compound 117, N-(3-((5-(2-chloropyridin-4-yl)-2-((1-methyl-1H-pyrazol-4-yl)amino)pyrimidin-4-yl)amino)-4-fluorophenyl)acrylamide] | 57 | 85 | 107 | 86 | 160
C=CC(=O)Nc1ccc(F)c(Nc2nc(Nc3cn(C)nc3C)ncc2-c2ccc(C(F)(F)F)cc2)c1 [Compound 135, N-(3-((2-((1,3-dimethyl-1H-pyrazol-4-yl)amino)-5-(4-(trifluoromethyl)phenyl)pyrimidin-4-yl)amino)-4-fluorophenyl)acrylamide trifluoroacetate] | 257 | 94 | 235 | 120 | 413
C=CC(=O)Nc1ccc(F)c(Nc2nc(Nc3cnn(C4COC4)c3)ncc2-c2ccc(C(F)(F)F)cc2)c1 [Compound 139, N-(4-fluoro-3-((2-((1-(oxetan-3-yl)-1H-pyrazol-4-yl)amino)-5-(4-(trifluoromethyl)phenyl)pyrimidin-4-yl)amino)phenyl)acrylamide] | 125 | > 10000 | 148 | 116 | 690
C=CC(=O)Nc1ccc(F)c(Nc2nc(Nc3cnn(C)c3)ncc2-c2ccc(OC(F)F)cc2)c1 [Compound 140, N-(3-((5-(4-(difluoromethoxy)phenyl)-2-((1-methyl-1H-pyrazol-4-yl)amino)pyrimidin-4-yl)amino)-4-fluorophenyl)acrylamide] | 34 | 22 | 58 | 32 | 269
C=CC(=O)Nc1ccc(F)c(Nc2nc(Nc3cnn(C)c3)ncc2-c2cncc(OC)c2)c1 [Compound 141, N-(4-fluoro-3-((5-(5-methoxypyridin-3-yl)-2-((1-methyl-1H-pyrazol-4-yl)amino)pyrimidin-4-yl)amino)phenyl)acrylamide] | 100 | 141 | 49 | 101 | 201
C=CC(=O)Nc1cccc(Nc2nc(Nc3cnn(C)c3)ncc2-c2ccc(OC(F)F)cc2)c1 [Compound 142, N-(3-((5-(4-(difluoromethoxy)phenyl)-2-((1-methyl-1H-pyrazol-4-yl)amino)pyrimidin-4-yl)amino)phenyl)acrylamide trifluoroacetate] | 34 | 169 | 24 | 16 | 50
C=CC(=O)Nc1cccc(Nc2nc(Nc3cnn(C)c3)ncc2-c2cncc(C(F)F)c2)c1 [Compound 144, N-(3-((5-(5-(difluoromethyl)pyridin-3-yl)-2-((1-methyl-1H-pyrazol-4-yl)amino)pyrimidin-4-yl)amino)phenyl)acrylamide trifluoroacetate] | 70 | 122 | 101 | 37 | 38
C=CC(=O)Nc1ccc(F)c(Nc2nc(Nc3cnn(C)c3)ncc2-c2cncnc2)c1 [Compound 147, N-(4-fluoro-3-((2-((1-methyl-1H-pyrazol-4-yl)amino)-[5,5′-bipyrimidin]-4-yl)amino)phenyl)acrylamide trifluoroacetate] | 101 | 466 | 68 | 105 | 100
C=CC(=O)Nc1cccc(Oc2nc(Nc3cnn(C)c3)ncc2-c2ccc(C(F)(F)F)cc2)c1 [Compound 151, N-(3-((2-((1-methyl-1H-pyrazol-4-yl)amino)-5-(4-(trifluoromethyl)phenyl)pyrimidin-4-yl)oxy)phenyl)acrylamide] | 129 | 375 | 226 | 105 | 354
C=CC(=O)Nc1ccc(F)c(Oc2nc(Nc3cnn(C)c3)ncc2-c2ccc(C(F)(F)F)cc2)c1 [Compound 152, N-(4-fluoro-3-((2-((1-methyl-1H-pyrazol-4-yl)amino)-5-(4-(trifluoromethyl)phenyl)pyrimidin-4-yl)oxy)phenyl)acrylamide] | 300 | 3500 | 407 | 173 | 651
C=CC(=O)Nc1cccc(Oc2nc(Nc3cnn(C)c3)ncc2-c2cncc(F)c2)c1 [Compound 184, N-(3-((5-(5-fluoropyridin-3-yl)-2-((1-methyl-1H-pyrazol-4-yl)amino)pyrimidin-4-yl)oxy)phenyl)acrylamide] | 27 | 97 | 222 | 37 | 60
C=CC(=O)Nc1cccc(Oc2nc(Nc3cnn(C)c3)ncc2-c2ccc(Cl)nc2)c1 [Compound 185, N-(3-((5-(6-chloropyridin-3-yl)-2-((1-methyl-1H-pyrazol-4-yl)amino)pyrimidin-4-yl)oxy)phenyl)acrylamide] | 37 | 522 | 97 | 40 | 113
C=CC(=O)Nc1cccc(Oc2nc(Nc3cnn(C)c3)ncc2-c2ccc(C)nc2)c1 [Compound 186, N-(3-((2-((1-methyl-1H-pyrazol-4-yl)amino)-5-(6-methylpyridin-3-yl)pyrimidin-4-yl)oxy)phenyl)acrylamide] | 90 | 170 | 106 | 114 | 175
C=CC(=O)Nc1cccc(Oc2nc(Nc3cnn(C)c3)ncc2-c2ccc(C(F)F)nc2)c1 [Compound 187, N-(3-((5-(6-(difluoromethyl)pyridin-3-yl)-2-((1-methyl-1H-pyrazol-4-yl)amino)pyrimidin-4-yl)oxy)phenyl)acrylamide] | 61 | 281 | 99 | 40 | 226
C=CC(=O)Nc1cccc(Oc2nc(Nc3cnn(C)c3)ncc2-c2ccc(OC(F)F)nc2)c1 [Compound 188, N-(3-((5-(6-(difluoromethoxy)pyridin-3-yl)-2-((1-methyl-1H-pyrazol-4-yl)amino)pyrimidin-4-yl)oxy)phenyl)acrylamide] | 118 | 216 | 300 | 108 | 269
